According to US20250197372A1 (priority 2020, published 2025):

Key:
[1] = molecular target: T1, recombinant alpha-glucosidase I (human full-length glucosidase I, Glu 1) (Homo sapiens, UniProt Q13724); assay: Alpha-glucosidase I assay (Amplex Red glucose detection, synthetic trisaccharide substrate); type: biochemical; details: Glucosidase 1; read-out: Glu 1 IC50
T1 construct: 6-His (C); made in house; host or cells: HEK-293T cells transduced with BacMam virus (virus raised in Sf9)
T1 sequence (Q13724 1-837): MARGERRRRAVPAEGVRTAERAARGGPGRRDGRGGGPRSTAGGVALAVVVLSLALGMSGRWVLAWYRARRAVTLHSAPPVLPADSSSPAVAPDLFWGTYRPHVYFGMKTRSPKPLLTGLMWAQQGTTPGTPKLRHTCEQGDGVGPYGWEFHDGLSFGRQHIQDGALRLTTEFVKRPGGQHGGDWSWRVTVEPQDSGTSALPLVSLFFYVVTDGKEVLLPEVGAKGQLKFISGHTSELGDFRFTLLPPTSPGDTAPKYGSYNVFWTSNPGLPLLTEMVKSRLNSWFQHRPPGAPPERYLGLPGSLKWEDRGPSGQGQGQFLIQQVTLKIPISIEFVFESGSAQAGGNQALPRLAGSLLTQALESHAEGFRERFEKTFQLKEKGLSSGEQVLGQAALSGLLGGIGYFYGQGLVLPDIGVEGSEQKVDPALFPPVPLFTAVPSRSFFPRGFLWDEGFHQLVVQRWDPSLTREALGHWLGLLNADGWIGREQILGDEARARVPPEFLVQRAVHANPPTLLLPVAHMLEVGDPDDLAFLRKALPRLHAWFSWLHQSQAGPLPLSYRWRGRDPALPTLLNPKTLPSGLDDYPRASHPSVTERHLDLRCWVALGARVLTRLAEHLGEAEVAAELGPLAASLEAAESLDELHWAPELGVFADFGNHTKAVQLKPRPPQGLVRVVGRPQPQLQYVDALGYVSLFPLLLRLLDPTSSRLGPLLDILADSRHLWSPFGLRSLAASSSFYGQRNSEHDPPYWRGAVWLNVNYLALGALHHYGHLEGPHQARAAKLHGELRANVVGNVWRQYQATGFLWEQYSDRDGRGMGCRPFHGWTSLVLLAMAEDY
Procedure, shortened: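 Human full-length glucosidase I, His-tagged, […] and Ni-purified. Enzyme preincubated with compound dilutions 60 min at 37° C, then synthetic trisaccharide substrate 90 min at 37° C; stopped with 1.5M Tris pH 8.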

[2] = molecular target: rat maltase (partially purified alpha-glucosidase from intestinal rat powder); assay: Intestinal alpha-glucosidase assay, maltose substrate (Glucose GO Kit); type: biochemical
Procedure, shortened: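 Glucose release is the read-out: compounds at multiple dilutions are first held with partially purified rat intestinal alpha-glucosidase for 60 min at 37 °C, after which maltose or sucrose substrate reacts for 30 min at 37 °C before a 5 min 90 °C stop. IC50 comes from a four-parameter logistic fit.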

SMILES	IC50 [1] [nM]	IC50 [2] [nM]
[N-]=[N+]=Nc1ccc(NCCOCCN2C[C@H](O)[C@@H](O)[C@H](O)[C@H]2CO)c([N+](=O)[O-])c1 [Compound 1255, (2R,3R,4R,5S)-1-(2-{2-[(4-azido-2-nitrophenyl)amino]ethoxy}ethyl)-2-(hydroxymethyl)piperidine-3,4,5-triol]	2010	33
Cc1cc(Br)cc(NCc2ccc(CN3C[C@H](O)[C@@H](O)[C@H](O)[C@H]3CO)cc2)c1 [Compound 1024, (2R,3R,4R,5S)-1-[(4-{[(3-bromo-5-methylphenyl)amino]methyl}phenyl)methyl]-2-(hydroxymethyl)piperidine-3,4,5-triol]	8	2
N#Cc1cc(Br)cc(NCc2ccc(CN3C[C@H](O)[C@@H](O)[C@H](O)[C@H]3CO)cc2)c1 [Compound 1026, 3-bromo-5-{[(4-{[(2R,3R,4R,5S)-3,4,5-trihydroxy-2-(hydroxymethyl)piperidin-1-yl]methyl}phenyl)methyl]amino}benzonitrile]	7	< 1
CN(C)Cc1ccc(NCCCCCCN2C[C@H](O)[C@@H](O)[C@H](O)[C@H]2CO)c(C(F)(F)F)c1 [Compound 1259, (2R,3R,4R,5S)-1-[6-({4-[(dimethylamino)methyl]-2-(trifluoromethyl)phenyl}amino)hexyl]-2-(hydroxymethyl)piperidine-3,4,5-triol]	330	20
COc1cc(NCCCCCCN2C[C@H](O)[C@@H](O)[C@H](O)[C@H]2CO)cc(-c2ncco2)c1 [Compound 1216, (2R,3R,4R,5S)-2-(hydroxymethyl)-1-(6-{[3-methoxy-5-(1,3-oxazol-2-yl)phenyl]amino}hexyl)piperidine-3,4,5-triol]	67	8
[N-]=[N+]=Nc1ccc(N2CC(OCCN3C[C@H](O)[C@@H](O)[C@H](O)[C@H]3CO)C2)c([N+](=O)[O-])c1 [Compound 1252, (2R,3R,4R,5S)-1-(2-{[1-(4-azido-2-nitrophenyl)azetidin-3-yl]oxy}ethyl)-2-(hydroxymethyl)piperidine-3,4,5-triol]	1350	37
OC[C@@H]1[C@@H](O)[C@H](O)[C@@H](O)CN1Cc1cccc(CNc2cc(-c3ncccn3)cc(C3CC3)c2)n1 [Compound 1333, (2R,3R,4R,5S)-1-{[6-({[3-cyclopropyl-5-(pyrimidin-2-yl)phenyl]amino}methyl)pyridin-2-yl]methyl}-2-(hydroxymethyl)piperidine-3,4,5-triol]	4530	846
CS(=O)(=O)c1cc(Br)cc(NCc2ccc(CN3C[C@H](O)[C@@H](O)[C@H](O)[C@H]3CO)cc2)c1 [Compound 1025, (2R,3R,4R,5S)-1-[(4-{[(3-bromo-5-methanesulfonylphenyl)amino]methyl}phenyl)methyl]-2-(hydroxymethyl)piperidine-3,4,5-triol]	21	4
Cc1cc(NCc2cccc(CN3C[C@H](O)[C@@H](O)[C@H](O)[C@H]3CO)n2)cc(-c2ccco2)c1 [Compound 1334, (2R,3R,4R,5S)-1-{[6-({[3-(furan-2-yl)-5-methylphenyl]amino}methyl)pyridin-2-yl]methyl}-2-(hydroxymethyl)piperidine-3,4,5-triol]	1080	224
COc1ccc(-c2ccc(CCCN3C[C@H](O)[C@@H](O)[C@H](O)[C@H]3CO)cc2)cc1 [Compound 1305, (2R,3R,4R,5S)-2-(hydroxymethyl)-1-(3-{4′-methoxy-[1,1′-biphenyl]-4-yl}propyl)piperidine-3,4,5-triol]	2830	< 10
OC[C@@H]1[C@@H](O)[C@H](O)[C@@H](O)CN1CCCCCCCCC1CNCCO1 (stereo partly drawn) [Compound 1311, (2R,3R,4R,5S)-2-(hydroxymethyl)-1-[8-(morpholin-2-yl)octyl]piperidine-3,4,5-triol]	1760	< 10
Cc1cc(NCc2cccc(CN3C[C@H](O)[C@@H](O)[C@H](O)[C@H]3CO)c2)cc(-c2ccc[nH]2)c1 [Compound 1033, (2R,3R,4R,5S)-2-(hydroxymethyl)-1-{[3-({[3-methyl-5-(1H-pyrrol-2-yl)phenyl]amino}methyl)phenyl]methyl}piperidine-3,4,5-triol]	9	37
[N-]=[N+]=Nc1ccc(NCCNS(=O)(=O)NCCN2C[C@H](O)[C@@H](O)[C@H](O)[C@H]2CO)c([N+](=O)[O-])c1 [Compound 1275, (2R,3R,4R,5S)-1-{2-[({2-[(4-azido-2-nitrophenyl)amino]ethyl}sulfamoyl)amino]ethyl}-2-(hydroxymethyl)piperidine-3,4,5-triol]	4060	288
[N-]=[N+]=Nc1ccc(NCCc2cccc(CCN3C[C@H](O)[C@@H](O)[C@H](O)[C@H]3CO)c2)c([N+](=O)[O-])c1 [Compound 1240, (2R,3R,4R,5S)-1-[2-(3-{2-[(4-azido-2-nitrophenyl)amino]ethyl}phenyl)ethyl]-2-(hydroxymethyl)piperidine-3,4,5-triol]	283	701
[N-]=[N+]=Nc1ccc(NCCN2CC(OCCN3C[C@H](O)[C@@H](O)[C@H](O)[C@H]3CO)C2)c([N+](=O)[O-])c1 [Compound 1271, (2R,3R,4R,5S)-1-{2-[(1-{2-[(4-azido-2-nitrophenyl)amino]ethyl}azetidin-3-yl)oxy]ethyl}-2-(hydroxymethyl)piperidine-3,4,5-triol]	1070	33
O=S(=O)(Nc1cc(-c2ncccn2)ccc1NCCCCCCN1C[C@H](O)[C@@H](O)[C@H](O)[C@H]1CO)C1CC1 [Compound 1227, N-[5-(pyrimidin-2-yl)-2-({6-[(2R,3R,4R,5S)-3,4,5-trihydroxy-2-(hydroxy-methyl)piperidin-1-yl]hexyl}amino)phenyl]cyclopropanesulfonamide]	169	12
NC(=O)c1cc(-c2ncccn2)ccc1NCCCCCCN1C[C@H](O)[C@@H](O)[C@H](O)[C@H]1CO [Compound 1266, 5-(pyrimidin-2-yl)-2-({6-[(2R,3R,4R,5S)-3,4,5-trihydroxy-2-(hydroxymethyl)piperidin-1-yl]hexyl}amino)benzamide]	180	2
O=[N+]([O-])c1cc(N2CC3CC2CO3)ccc1NCc1ccc(CN2C[C@@H](O)[C@H](O)[C@@H](O)[C@@H]2CO)cc1 (stereo in doubt) [Compound 1015, (2S,3S,4S,5R)-2-(hydroxymethyl)-1-[(4-{[(2-nitro-4-{2-oxa-5-azabicyclo[2.2.1]heptan-5-yl}phenyl)amino]methyl}phenyl)methyl]piperidine-3,4,5-triol]	9	8
Cc1cc(-c2ncccn2)ccc1NCCCCCCN1C[C@H](O)[C@@H](O)[C@H](O)[C@H]1CO [Compound 1233, (2R,3R,4R,5S)-2-(hydroxymethyl)-1-(6-{[2-methyl-4-(pyrimidin-2-yl)phenyl]amino}hexyl)piperidine-3,4,5-triol]	123	32
[N-]=[N+]=Nc1ccc(NCCc2ccccc2CCN2C[C@H](O)[C@@H](O)[C@H](O)[C@H]2CO)c([N+](=O)[O-])c1 [Compound 1249]	2450	3490
